According to patent US5965524A, “Analogs of viscosin and uses thereof” (Peptide Technologies Corporation, priority 1994, dated 1999):
Where two headings read alike, the source gives them in different places.

Columns and labels:
[1] = test system: Herpes Simplex Virus 2 (HSV-2); test: Inhibition of HSV-2 growth in cultured cells; type: cell-based; details: lowest concentration at which 50% of the viruses are rendered noninfective
Excerpt: Particularly preferred host cells are rabbit skin cells or Vero cells. […] Acyclovir, a known antiherpesviral agent (Douglas, R., Chapter 51 in Goodman and Gilman's the Pharmacological Basis of Therapeutics, 8th Ed., G. Gilman et al., eds., Pergamon Press, New York (1980)), was used as a positive control.

[2] = Cell toxicity in the HSV-2 assay
Excerpt: (Davis, B., Chapter 55 in Microbiology, Including Immunology and Molecular Genetics, 3rd Ed., Harper & Row, Philadelphia (1980), p. 1064). Particularly preferred host cells are rabbit skin cells or Vero cells. (Grammer, S., et al., J. Immunol. 145:2249-2253 (1990); Gao, W., et al., J. Biol. Chem. 265:20172-20178 (1990)). […] (See, e.g., Groupe, V., et al., Proc. Soc. Exptl. Biol. Med. 78:354-358 (1951); Mitsuya, H., et al., Science 226:172-174 (1984)). Acyclovir, a known antiherpesviral agent (Douglas, R., Chapter 51 in Goodman and Gilman's the Pharmacological Basis of Therapeutics, 8th Ed., G. Gilman et al., eds., Pergamon Press, New York (1980)), was used as a positive control.

[3] = test system: Leishmania donovani; test: Effect on growth of L. donovani in serum-containing and serum-free medium; type: cell-based; details: cell densities at 21 hr, in some cases 43 hr, 27° C.; for Lowest concentration with activity against L. Donovani: Growth: serum-containing M199 medium; for Lowest concentration with activity against L. Donovani: Growth (Serum Free Medium): serum-free REIII medium
Protocol: For the purpose of determining the effect of the compounds on the growth of parasite in serum-containing and serum-free medium, the parasites were harvested from culture medium M199+5% FBS, washed twice in HBSS and resuspended in same at 1×10^8 /mL. Serum-containing M199 ans serum-free REIII media were filtered and sterilized prior to use. The washed cells were added to achieve an initial concentration of 1.66×10^6 cells/mL. Cell densities were determined by hemacytometry at 21 hr, and in some cases at 43 hr of incubation at 27° C.

[4] = test system: Leishmania donovani; test: Lysis of L. donovani parasites; type: cell-based; details: parasites 1x10^8 per mL in HBSS; examined at 4 hr and after overnight at 27° C.

Compound	HSV-2 LD50 [1] [µg/mL]	Cell Toxicity ([2]; host cells of the HSV-2 assay) [µg/mL]	Lowest concentration with activity against L. Donovani: Growth [3]	Lowest concentration with activity against L. Donovani: Growth (Serum Free Medium) [3]	Cell Toxicity [2] [µg/mL]	Lowest concentration with activity against L. Donovani: Lysis [4]
Nc1nc2c(ncn2COCCO)c(=O)[nH]1 [Acyclovir, reference compound]	0.6 to 1.5					
CCCCCCC[C@@H](O)CC(=O)N[C@@H](CC(C)C)C(=O)N[C@H](CCC(=O)O)C(=O)N[C@@H](C(=O)N[C@@H](C(=O)N[C@@H](CC(C)C)C(=O)N[C@H](CO)C(=O)N[C@@H](CC(C)C)C(=O)N[C@H](CO)C(=O)N[C@H](C(=O)O)[C@@H](C)CC)C(C)C)[C@@H](C)O [Compound 5, Viscosic Acid]		> 100				
CCCCCCC[C@@H](O)CC(=O)N[C@@H](CC(C)C)C(=O)N[C@H](CCC(=O)O)C(N)=O [Compound 7, D-3-Hydroxydecanoyl-L-Leu-D-Glu-Amide]	> 100		no effect	no effect	> 100	no effect
CCCCCCC[C@@H](O)CC(=O)N[C@@H](CC(C)C)C(=O)N[C@H](CCC(=O)OCc1ccccc1)C(=O)Nc1ccc2c(c1)OCCOCCOCCOCCO2 [Compound 10, 15-[[N-[N-[D-3-Hydroxydecanoyl]-L-Leucyl]-O-(phenylmethyl)-D-glutamyl]amino]-2,3,5,6,8,9,11,12-octahydro-1,4,7,10,13-benzopentaoxacyclopentadecin]	> 100		100 mg/mL	100 mg/mL	> 100	30 mg/mL
CCCCCCC[C@@H](O)CC(=O)N[C@@H](CC(C)C)C(=O)N[C@H](CCC(=O)O)C(=O)Nc1ccc2c(c1)OCCOCCOCCOCCO2 [Compound 11, 15-[[N-[N-[D-3-Hydroxydecanoyl]-L-Leucyl]-D-glutamyl]amino]-2,3,5,6,8,9,11,12-octahydro-1,4,7,10,13-benzopentaoxacyclopentadecin]	> 100		no effect	no effect	> 100	no effect
CCCCCCCCCC(=O)N[C@@H](CC(C)C)C(=O)N[C@H](CCC(=O)OCc1ccccc1)C(=O)Nc1ccc2c(c1)OCCOCCOCCOCCO2 [Compound 12, 15-[[N-[N-[Decanoyl]-L-Leucyl]-O-(phenylmethyl)-D-glutamyl]amino]-2,3,5,6,8,9,11,12-octahydro-1,4,7,10,13-benzopentaoxacyclopentadecin]	> 50		no effect	no effect	100	100 mg/mL
CCCCCCCCCC(=O)N[C@@H](CC(C)C)C(=O)N[C@H](CCC(=O)O)C(=O)Nc1ccc2c(c1)OCCOCCOCCOCCO2 [Compound 13, 15-[[N-[N-[Decanoyl]-L-Leucyl]-D-glutamyl]amino]-2,3,5,6,8,9,11,12-octahydro-1,4,7,10,13-benzopentaoxacyclopentadecin]	> 100		no effect	no effect	> 100	no effect
CCCCCCCCCCCCCCC(CCC(=O)OCc1ccccc1)C(=O)Nc1ccc2c(c1)OCCOCCOCCOCCO2 (stereo not shown) [Compound 14]	> 33		100 mg/mL	10 mg/mL	100	30 mg/mL
CCCCCCCCCCCCCCC(CCC(=O)O)C(=O)Nc1ccc2c(c1)OCCOCCOCCOCCO2 (stereo not shown) [Compound 15]	11		30 mg/mL	10 mg/mL	33	30 mg/mL
CC(=O)Nc1ccc2c(c1)OCCOCCOCCOCCO2 [Compound 16]	> 100				> 100	
CCCCCCCCCCCCCCCCCC(=O)c1ccc2c(c1)OCCOCCOCCOCCO2 [Compound 42, Octadecanoyl benzo-15-Crown-5-ether]	> 100				> 100	
Deshydroxy Viscosin [Compound 3]	19 to 28					
Octadecanoyl Viscosin [Compound 4]	> 100					
